Converted amounts (≈) assume the structure as drawn. “Also recorded” adds a separate entry of the source.
How the values were obtained:
[1] = test system: Saccharomyces cerevisae FY833(SC) cells; assay: Viability of Saccharomyces cerevisae FY833 (SC) cells at various concentrations; assay type: cell-based; conditions: FIG. 1, various concentrations; listed as amide 7
Procedure: All derivatives were tested for antibiotic activity in yeast cultures of S. cerevisiae.

[2] = test system: Saccharomyces cerevisae FY833(SC) cells compared with human renal cells 293Q; conditions: FIG. 3
[3] = test system: human renal cells 293Q (ATCC CLR-1573); assay: MTT cytotoxicity on human renal cells 293Q
Procedure: For cytotoxicity studies human kidney cells (ATCC No. CRL-1573) were used. The cells were cultured with Minimum Essential Medium (MEM) (GIBCO BRL), supplemented with 10% fetal bovine serum (FBS) (GIBCO BRL), 2 mM 1-glutamine (GIBCO BRL), 1.5 gL Na2HCO3 (Sigma Chemical Co), 0.1 mM nonessential amino acids (Sigma Chemical Co), and 1 mM sodium pyruvate (In vitro, S.A.). The technique of bromide of 3(4,5-dimethylthiazol-2-yl)-2,5-diphenyl tetrazolium (MTT) (Sigma Chemical Co) was applied; a technique which is based on the conversion of dye to an insoluble precipitate called formazan. This test is used as an indicator of mitochondrial function in living cells that measures the metabolic capacity in cells and serves as an indicator of cytotoxicity. […] (Mosman […], Immunol Methods, 65: 55-63). The cytoxicity test consisted of planting 10,000 cells per well in 96-well plates (Corning Incorporated Costar) in MEM and incubate them (Nuaire us autoflow CO2 water-jacketed incubator) during 24 h at 37° C. and 5% CO2. […] After incubation, cells were treated and incubated anew for 24 h. After this time the medium was aspirated carefully and replaced with 200 μL of fresh medium, and 50 μL of MTT was added for a total volume of 250 μl. They were then incubated for 4 hours in the above conditions. After that time the medium with MTT was carefully removed and 200 μL of DMSO and 25 μL of Sorensen buffer (0.1 M glycine+0.1 M NaCl at pH 10.5) were added to each well. The plate was then mixed until the formazan crystals dissolved, and it was finally read in a plate reader (Microplate Limaning System Ultramark, Biorad) at a wavelength of 550 nm.
For the tests, we used human renal ephythelial cells (293Q) (ATCC Catalog No. CRL-1573). The cells were cultured with Minimum Essential Medium (MEM) (GIBCO BRL) supplemented with 10% fetal bovine serum (FBS) (GIBCO BRL), 2 mM L-glutamine (GIBCO BRL), 1.5 g/L Na2HCO3 (Sigma Chemical Co), 0.1 mM nonessential amino acids (Sigma Chemical Co), and 1 mM sodium pyruvate (In vitro, S.A.). For cytoxicity tests, we applied the technique of bromide 3(4,5-dimethylthiazol-2-yl)-2,5-diphenyl tetrazolium (MTT) (Sigma Chemical Co), which is based on the conversion of the dye to an insoluble precipitate called formazan. This test is used as an indicator of mitochondrial function in living cells which measures the metabolic capacity in cells and serves as an indicator of cytotoxicity. (Wang, H. Z., Chang, C. H., Lin, C. P., Tsai, M. C). Using MTT viability assay to test the cytotoxicity of antibiotics and steroid to cultured porcine corneal endothelial cells. J. Ocul. Pharmacol. Ther. 1996; 12: 35-43). For the essay 10,000 cells were seeded per well in 96-well plates (Corning Incorporated Costar) in the medium already indicated and incubated for 24 h at 37° C. and 5% CO2. […] After incubation, cells were treated and incubated again for 24 h. The medium was carefully aspirated and replaced with 200 μl fresh medium, adding 50 μl MTT solution for a total volume of 250 μl. They were then incubated for 4 hours in the above conditions. The medium was carefully removed with MTT and 200 μl DMSO and 25 μl Sorense buffer (0.1 M glycine+0.1 M NaCl at pH 10.5) was added to each well. Then the plate was mixed until the formazan crystals dissolved; it was finally read in a reader plate (Microplate Limaning System Ultramark, Biorad) at a wavelength of 550 nm.

physchem = conditions: DMSO, organic solvent or mixture
Candida albicans DSY294 = conditions: Carreira E.; cited from earlier work
[4] = 10 μM AmB; from Venegas et al.; cited from earlier work
[5] = comparison value, source not given; cited from earlier work
[6] = Unit channel studies in chicken egg lecithin bilayers with ergosterol; conditions: AmB 2 μM; 30° C.
Procedure: Unit channel studies were performed according to procedures described earlier (Cotero, et al., supra, Venegas, et al., supra). Required liposomal suspensions were prepared using lecithin with cholesterol or ergosterol. These suspensions were placed in an ultrasonic bath for 15 minutes to produce unilamellar vesicles. Subsequently, the suspension was placed in a 100 μl eppendorf and a lipid bilayer was formed on the tip of a micro-electrode. The unit channels of amphotericin and of the invented compounds were incorporated to this bilayer. The unit channel current of the various compounds was recorded with an electrometer, and then these records were analyzed by determining the activity of the compounds and the characteristics of the channels formed.
The activity is determined by the presence of the various channels formed by polyenes in the lipid bilayer (Cotero, et al., supra, Venegas, et al., supra). […] This conductance is the effect of all the channels present and was determined by the unit channel technique earlier described.

Candida albicans (10231) = conditions: Preobrazhenskaya M; cited from earlier work

SMILES	inhibitory capacity / potency on SC cells compared to AmB [1]	advantage of selectivity over AmB (factor) [2]	collateral cytotoxicity on human renal cells 293Q compared to AmB ([3]; FIG. 2, FIG. 8, listed as amide 7)	DT50 CitE50 ([3]; human renal cells 293Q, 24 h)	solubility (physchem)	MIC-Candida albicans DSY294 (Candida albicans DSY294)	Opening probability, channel type I [4]	Opening probability, channel type II [4]	Opening probability, channel type III [4]	Opening probability, channel type IV [4]	Opening probability, channel type V [4]	Opening probability, channel type VI [4]	DT50 CitE50 ([3]; human, 24 h)	MIC50 Kidney cells (293Q) ([3]; human, 24 h)	solubility of AmB [5]	Average conductance ergosterol [6]	MIC50-Candida albicans (10231) (Candida albicans (10231))
COC(=O)[C@@H](Cc1c[nH]c2ccccc12)NC(=O)[C@@H]1C(O)C[C@@]2(O)C[C@@H](O)C[C@@H](O)[C@H](O)CC[C@@H](O)C[C@@H](O)CC(=O)OC(C)C(C)[C@H](O)C(C)/C=C/C=C/C=C/C=C/C=C/C=C/C=C/[C@H](OC3OC(C)C(O)C(N)C3O)CC1O2 (some centres unmarked) [A-7, N-(D)-tryptophanamide of AmB]	the most similar; also recorded: the highest power of the derivatives	4	the lowest cytoxicity; also recorded: low cytoxicity	220 µM	–	–	–	–	–	–	–	–	–	–	–	–	–
C[C@@H]1[C@H](O)[C@@H](C)/C=C/C=C/C=C/C=C/C=C/C=C/C=C/[C@H](O[C@@H]2O[C@H](C)[C@@H](O)[C@H](N)[C@@H]2O)C[C@@H]2O[C@](O)(C[C@@H](O)C[C@@H](O)[C@H](O)CC[C@@H](O)C[C@@H](O)CC(=O)O[C@H]1C)C[C@H](O)[C@H]2C(=O)O [AmB, Amphotericin B]	–	–	–	–	≤ 20000 µM	0.4 µM (≈ 0.37 µg/mL)	0.59%	0.26%	0.08%	4.06%	1.81%	0.93%	9.7 µM	9.7 µM (≈ 8.96 µg/mL)	10 µg/mL	600 ± 210 fS	0.11 µg/mL (≈ 0.119 µM)

— patent US20140256663A1, “Amphotericin Analogous Compounds and Pharmaceutical Compositions Containing Them” (CENTRO DE INVESTIGACION Y DE ESTUDIOS AVANZADOS DEL …, priority 2010, published 2014)
